Data on seven test systems can be found in the supplement of paper PMC6045584.

± gives the standard deviation of the averaged measurements.

Compound in test [1]: T1, C=CC(=O)Nc1cc2c(Nc3ccc(F)c(Cl)c3)ncnc2cc1OCCCN1CCOCC1 [CANERTINIB]
Briefly: surviving fraction relative to DMSO-only wells; higher = less growth inhibition. Particulars: exposure time: 5 days. An outline of the steps:
(§1)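 Inhibitors were tested at 0.5, 1, 5, 10, 50, 100, 500 and 1000 nM, applied continuously for five days beginning 24 hours after log-phase tumour cells were seeded at 250–500 per well in 384-well plates. CellTiter-Glo luminescence served as the viability measure, expressed as surviving fraction against the median of DMSO-only wells. Each line, screened three times, was kept only with replicate Pearson r >0.7 and median Z' >0.3.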

Compound in test [2]: Cn1cc(C2=Nc3cc(NC(=O)C(N)C4CCCCC4)cc4c3C2=CNNC4=O)cn1
Described as above. The note with it: exposure time: 5 days. The essentials: as §1

Compound in test [3]: T1, CANERTINIB
The test can be described thus: area under dose-response curve of surviving fraction (unscaled, Aref=0) (surviving fraction x log10(nM)); higher = more resistant. The note with it: exposure time: 5 days; dose range 0.5-1000 nM. The essentials:
(§2)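 Three screens per tumour cell line were run in 384-well plates at eight inhibitor concentrations from 0.5 to 1000 nM over five days. Surviving fractions, from CellTiter-Glo luminescence normalised to DMSO-only wells, were fitted with 3-parameter logistic curves in the drc R package. The reported area under the curve is the unscaled activity area. It spans log10 dose, and Aref is 0.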

Compound in test [4]: CCCCCCCCCCCCCCCC(=O)Nc1ccn([C@@H]2O[C@H](CO)[C@@H](O)[C@@H]2C#N)c(=O)n1 [SAPACITABINE]
The test is described as above. Particulars: exposure time: 5 days; dose range 0.5-1000 nM. The essentials:
as §2

Compound in test [5]: CC[C@@H]1C(=O)N(C)c2cnc(Nc3ccc(C(=O)NC4CCN(C)CC4)cc3OC)nc2N1C1CCCC1 [BI-2536]
Described as above. Particulars: exposure time: 5 days; dose range 0.5-1000 nM. The essentials:
as §2

Compound in test [6]: CNC(=O)c1ccc(N2C(=S)N(c3ccc(C#N)c(C(F)(F)F)c3)C(=O)C2(C)C)cc1F [MDV3100]
The description is as above. The note with it: exposure time: 5 days; dose range 0.5-1000 nM. An outline of the steps:
as §2

For SCC47 HEADNECK, the surviving fraction in test [1] (0.5 nM) came to 0.828 ± 0.025; in test [1] (1 nM) it was 0.921 ± 0.088; in test [1] (5 nM), 0.881 ± 0.048; in test [1] (10 nM) it was 0.889 ± 0.028; in test [1] (50 nM) it was 0.9577 ± 0.0083; in test [1] (100 nM), 0.805 ± 0.032. Further, the surviving fraction in test [1] (500 nM) was determined as 0.681 ± 0.015; in test [1] (1000 nM), 0.432 ± 0.044; in test [2] (0.5 nM), 1.02 ± 0.015; in test [2] (1 nM) it was 1.03 ± 0.13; in test [2] (5 nM) it was 1.1 ± 0.065; in test [2] (10 nM), 1.08 ± 0.11. The surviving fraction was 1 ± 0.027 in test [2] (50 nM), 1.01 ± 0.054 in test [2] (100 nM), 0.981 ± 0.011 in test [2] (500 nM) and 0.81 ± 0.094 in test [2] (1000 nM). Also, the “area under dose-response curve” value in test [3] came out at 2.83; in test [4], 3.12; in test [5], 1.87; in test [6] it was 3.22.
In the case of YAMATO SYNOVIAL, the surviving fraction in test [1] (0.5 nM) came out at 0.878 ± 0.19; in test [1] (1 nM), 0.857 ± 0.088; in test [1] (5 nM), 0.909 ± 0.065; in test [1] (10 nM), 0.938 ± 0.091; in test [1] (50 nM), 1.27 ± 0.1; in test [1] (100 nM), 1.28 ± 0.067. In addition, the surviving fraction in test [1] (500 nM) came to 1.06 ± 0.083; in test [1] (1000 nM), 1.1 ± 0.074; in test [2] (0.5 nM), 1.32 ± 0.11; in test [2] (1 nM) it was 1.28 ± 0.16; in test [2] (5 nM), 1.32 ± 0.093; in test [2] (10 nM), 1.33 ± 0.12. Further, the surviving fraction in test [2] (50 nM) worked out at 0.8 ± 0.032; in test [2] (100 nM) it was 0.682 ± 0.077; in test [2] (500 nM), 0.285 ± 0.011; in test [2] (1000 nM), 0.258 ± 0.017. The “area under dose-response curve” value in test [3] came to 3.14; in test [4] it was 1.68; in test [5], 1.27; in test [6], 2.85.
Consider CADOES1 SOFT TISSUE, for which the surviving fraction was found to be 1 ± 0.13 in test [1] (0.5 nM); 0.945 ± 0.049 in test [1] (1 nM); 0.945 ± 0.038 in test [1] (5 nM); 0.93 ± 0.075 in test [1] (10 nM); 0.918 ± 0.17 in test [1] (50 nM); 0.926 ± 0.029 in test [1] (100 nM). In addition, the surviving fraction in test [1] (500 nM) was found to be 0.738 ± 0.12; in test [1] (1000 nM), 0.595 ± 0.035; in test [2] (0.5 nM) it was 0.973 ± 0.13; in test [2] (1 nM) it was 0.933 ± 0.073; in test [2] (5 nM), 0.868 ± 0.011; in test [2] (10 nM), 0.905 ± 0.051. Besides, the surviving fraction in test [2] (50 nM) came out at 0.88 ± 0.071; in test [2] (100 nM), 0.988 ± 0.13; in test [2] (500 nM), 0.798 ± 0.068; in test [2] (1000 nM), 0.558 ± 0.027. Moreover, the “area under dose-response curve” value stood at 3 in test [3], 1.99 in test [4], 1.66 in test [5] and 2.95 in test [6].
Turning to SUM44 BREAST, the surviving fraction was 0.778 ± 0.15 in test [1] (0.5 nM); 0.719 ± 0.22 in test [1] (1 nM); 0.797 ± 0.16 in test [1] (5 nM); 0.796 ± 0.18 in test [1] (10 nM); 1.05 ± 0.063 in test [1] (50 nM); 0.948 ± 0.16 in test [1] (100 nM). For the same test system, the surviving fraction was determined as 0.84 ± 0.14 in test [1] (500 nM); 0.778 ± 0.12 in test [1] (1000 nM); 0.896 ± 0.016 in test [2] (0.5 nM); 0.936 ± 0.059 in test [2] (1 nM); 0.905 ± 0.072 in test [2] (5 nM); 0.594 ± 0.03 in test [2] (10 nM). The surviving fraction in test [2] (50 nM) was 0.349 ± 0.028; in test [2] (100 nM) it was 0.239 ± 0.0068; in test [2] (500 nM), 0.232 ± 0.017; in test [2] (1000 nM) it was 0.301 ± 0.015. The “area under dose-response curve” value in test [3] was found to be 2.78; in test [4] it was 2.51; in test [5], 0.689; in test [6], 3.43.
For the test system MFM223 BREAST, the surviving fraction in test [1] (0.5 nM) worked out at 0.817 ± 0.075; in test [1] (1 nM) it was 0.898 ± 0.12; in test [1] (5 nM), 0.84 ± 0.14; in test [1] (10 nM), 0.808 ± 0.01; in test [1] (50 nM), 0.958 ± 0.077; in test [1] (100 nM) it was 1 ± 0.034. For the same test system, the surviving fraction is 0.874 ± 0.013 in test [1] (500 nM); 0.794 ± 0.029 in test [1] (1000 nM); 1.15 ± 0.029 in test [2] (0.5 nM); 1.1 ± 0.012 in test [2] (1 nM); 1.09 ± 0.11 in test [2] (5 nM); 1.05 ± 0.069 in test [2] (10 nM). Further, the surviving fraction in test [2] (50 nM) came to 0.748 ± 0.047; in test [2] (100 nM), 0.408 ± 0.036; in test [2] (500 nM), 0.226 ± 0.018; in test [2] (1000 nM), 0.193 ± 0.025. For the same test system, the “area under dose-response curve” value stood at 2.88 in test [3], 2.85 in test [4], 0.566 in test [5] and 3.56 in test [6].
For the test system MDAMB436 BREAST, the surviving fraction came out at 0.798 ± 0.056 in test [1] (0.5 nM); 0.875 ± 0.064 in test [1] (1 nM); 0.854 ± 0.065 in test [1] (5 nM); 0.839 ± 0.061 in test [1] (10 nM); 0.956 ± 0.094 in test [1] (50 nM); 0.98 ± 0.13 in test [1] (100 nM). In addition, the surviving fraction was found to be 0.839 ± 0.054 in test [1] (500 nM); 0.742 ± 0.067 in test [1] (1000 nM); 0.847 ± 0.079 in test [2] (0.5 nM); 0.911 ± 0.097 in test [2] (1 nM); 0.871 ± 0.05 in test [2] (5 nM); 0.852 ± 0.11 in test [2] (10 nM). The surviving fraction in test [2] (50 nM) was 0.813 ± 0.051; in test [2] (100 nM), 0.577 ± 0.031; in test [2] (500 nM), 0.284 ± 0.02; in test [2] (1000 nM), 0.228 ± 0.011. In addition, the “area under dose-response curve” value in test [3] came out at 2.86; in test [4] it was 2.05; in test [5], 1.46; in test [6], 3.1.
Consider MG63 BONE, for which the surviving fraction in test [1] (0.5 nM) stood at 0.947 ± 0.015; in test [1] (1 nM), 0.919 ± 0.016; in test [1] (5 nM), 0.9893 ± 0.007; in test [1] (10 nM) it was 0.971 ± 0.013; in test [1] (50 nM) it was 1.02 ± 0.014; in test [1] (100 nM) it was 1.02 ± 0.011. The surviving fraction in test [1] (500 nM) was 0.993 ± 0.025; in test [1] (1000 nM) it was 1 ± 0.022; in test [2] (0.5 nM), 0.99 ± 0.033; in test [2] (1 nM), 1.02 ± 0.021; in test [2] (5 nM), 1.03 ± 0.024; in test [2] (10 nM), 1.05 ± 0.047. For the same test system, the surviving fraction was determined as 1.02 ± 0.058 in test [2] (50 nM), 0.822 ± 0.0046 in test [2] (100 nM), 0.0643 ± 0.0084 in test [2] (500 nM) and 0.101 ± 0.011 in test [2] (1000 nM). In addition, the “area under dose-response curve” value in test [3] was determined as 3.24; in test [4], 2.19; in test [5] it was 1.12; in test [6] it was 3.28.
